Reference: patent US9567345B2, “Pharmaceutically active pyrazolo-triazine derivatives” (LEAD DISCOVERY CENTER GMBH, priority 2012, dated 2017)

Columns and labels:
Format in all cases: biochemical
CDK2/CycA = target: T1, CDK2/CycA (Homo sapiens, UniProt P24941); assay: CDK2 Enzymatic Activity Assay (Lance Kinase Activity Assay, FRET); details: Table 5B, class symbols per IC50 [nM] ranges of b581; read-out: CDK2: Selectivity of CDK7 inhibition over CDK2 inhibition
T1 construct: purchased Proqinase
In short: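 Compounds in an 8-step, 1:3 dilution series were incubated 1 h at room temperature with CDK2/CycA, ULight-MBP substrate and ATP in pH 7.5 HEPES buffer.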

CDK9/Cyclin T1 = CDK9/Cyclin T1 (Homo sapiens, UniProt P50750); assay: CDK9 Enzymatic Activity Assay (Lance Kinase Activity Assay, FRET); details: Table 5B, class symbols per IC50 [nM] ranges of b581; read-out: CDK9: Selectivity of CDK7 inhibition over CDK9 inhibition
In short: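 CDK9/cyclin T1 phosphorylation of a ULight-MBP peptide was run for 1 h at room temperature in pH 7.5 HEPES buffer with MgCl2, EGTA, DTT and Tween-20. It was followed by 1 h with Eu-anti-phospho-MBP antibody (4 nM) in EDTA detection buffer. TR-FRET loss gave IC50 from 8-point, 1:3 sigmoidal dose-response curves.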

CDK7/CycH/Mat1 = CDK7/CycH/Mat1 (Homo sapiens, UniProt P50613); assay: CDK7 Enzymatic Activity Assay (Lance Kinase Activity Assay, FRET); details: CDK7/CycH/Mat1, 25 μM ATP final; class ranges; read-out: CDK7: IC50 [nM] for CDK7 inhibition
In short: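 TR-FRET (LANCE) kinase assay: CDK7/CycH/Mat1 phosphorylates Ulight-MBP substrate for 1 h at room temperature in pH 7.5 HEPES buffer; detection 1 h with Eu-labelled anti-phospho antibody plus EDTA.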

Chain of CDK9/Cyclin T1 (P50750 whole entry): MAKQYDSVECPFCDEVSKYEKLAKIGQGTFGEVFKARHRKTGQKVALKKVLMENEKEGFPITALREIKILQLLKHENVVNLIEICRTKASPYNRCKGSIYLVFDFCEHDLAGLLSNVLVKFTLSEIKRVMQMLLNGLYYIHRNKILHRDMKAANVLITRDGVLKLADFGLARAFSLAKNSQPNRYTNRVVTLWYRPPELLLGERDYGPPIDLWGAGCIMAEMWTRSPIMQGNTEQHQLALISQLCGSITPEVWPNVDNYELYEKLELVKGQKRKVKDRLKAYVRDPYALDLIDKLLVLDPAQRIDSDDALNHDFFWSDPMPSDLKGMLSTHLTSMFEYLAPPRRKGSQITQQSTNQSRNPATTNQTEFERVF
Chain of CDK9/Cyclin T1 (O60563 whole entry partner): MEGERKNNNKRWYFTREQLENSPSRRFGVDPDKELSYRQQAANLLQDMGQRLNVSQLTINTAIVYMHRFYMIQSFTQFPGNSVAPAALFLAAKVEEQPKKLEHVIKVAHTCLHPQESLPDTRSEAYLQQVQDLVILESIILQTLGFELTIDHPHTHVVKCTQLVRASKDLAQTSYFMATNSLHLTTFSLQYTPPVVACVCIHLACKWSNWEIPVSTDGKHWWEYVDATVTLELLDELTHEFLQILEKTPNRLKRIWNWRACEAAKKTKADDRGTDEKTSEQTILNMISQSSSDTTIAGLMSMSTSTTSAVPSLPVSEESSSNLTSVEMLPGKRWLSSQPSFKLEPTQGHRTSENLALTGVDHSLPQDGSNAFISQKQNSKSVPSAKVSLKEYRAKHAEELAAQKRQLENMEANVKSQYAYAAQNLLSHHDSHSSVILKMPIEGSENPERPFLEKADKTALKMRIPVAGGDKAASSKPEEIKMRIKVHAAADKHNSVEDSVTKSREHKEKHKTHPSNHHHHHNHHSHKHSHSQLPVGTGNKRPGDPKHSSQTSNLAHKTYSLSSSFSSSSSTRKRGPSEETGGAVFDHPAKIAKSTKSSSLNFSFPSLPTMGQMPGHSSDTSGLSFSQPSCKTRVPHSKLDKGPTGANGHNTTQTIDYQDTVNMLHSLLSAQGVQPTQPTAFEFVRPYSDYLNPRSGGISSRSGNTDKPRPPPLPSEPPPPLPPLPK
Chain of CDK7/CycH/Mat1 (P50613 whole entry): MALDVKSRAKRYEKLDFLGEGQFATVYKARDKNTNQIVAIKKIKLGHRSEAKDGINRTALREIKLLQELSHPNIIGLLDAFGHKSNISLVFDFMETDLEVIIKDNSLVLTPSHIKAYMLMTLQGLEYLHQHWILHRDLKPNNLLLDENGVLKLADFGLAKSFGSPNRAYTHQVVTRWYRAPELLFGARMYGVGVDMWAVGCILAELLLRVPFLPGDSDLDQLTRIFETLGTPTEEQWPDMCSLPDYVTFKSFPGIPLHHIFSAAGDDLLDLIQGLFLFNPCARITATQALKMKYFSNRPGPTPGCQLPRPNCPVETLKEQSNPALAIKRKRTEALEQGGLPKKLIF

| Compound | IC50 (CDK2/CycA) [nM] | IC50 (CDK9/Cyclin T1) [nM] | IC50 (CDK7/CycH/Mat1) [nM] |
| --- | --- | --- | --- |
| CC(C)c1cnn2c(NCc3ccccc3-n3ccnc3)nc(O[C@@H]3CCNC3)nc12 [(VII-27), (R)-N-(2-(1H-imidazol-1-yl)benzyl)-8-isopropyl-2-(pyrrolidin-3-yloxy)pyrazolo[1,5-a][1,3,5]triazin-4-amine] | 50 to 500 | 50 to 500 | < 5 |
| CC(C)c1cnn2c(NCc3ccccc3-c3cccs3)nc(OC3CCNCC3)nc12 [(VII-14), 8-isopropyl-2-(piperidin-4-yloxy)-N-(2-(thiophen-2-yl)benzyl)pyrazolo[1,5-a][1,3,5]triazin-4-amine] | 50 to 500 | 500 to 2500 | < 5 |
| CC(C)c1cnn2c(NCc3ccccc3-n3cccn3)nc(N3CCC4(CCCN4)C3)nc12 (stereo not drawn) [(VIII-17), N-(2-(1H-pyrazol-1-yl)benzyl)-8-isopropyl-2-(1,7-diazaspiro[4.4]nonan-7-yl)pyrazolo[1,5-a][1,3,5]triazin-4-amine] | 500 to 2500 | > 2500 | < 5 |
| CC(C)c1cnn2c(NCc3ccccc3S(C)(=O)=O)nc(O[C@@H]3CCCNC3)nc12 [(VII-154), (R)-8-isopropyl-N-(2-(methylsulfonyl)benzyl)-2-(piperidin-3-yloxy)pyrazolo[1,5-a][1,3,5]triazin-4-amine] | 50 to 500 | > 2500 | < 5 |
| CC(C)c1cnn2c(NCc3ccccc3-n3cccn3)nc([S+]([O-])C3CCNCC3)nc12 (stereo not drawn) [(X-1), N-(2-(1H-pyrazol-1-yl)benzyl)-8-isopropyl-2-(piperidin-4-ylsulfinyl)pyrazolo[1,5-a][1,3,5]triazin-4-amine] | 50 to 500 | 500 to 2500 | < 5 |
| CC(C)c1cnn2c(NCc3ccccc3-n3cccn3)nc(C(=O)N(C)CCN3CCOCC3)nc12 [(XII-06), 4-((2-(1H-pyrazol-1-yl)benzyl)amino)-8-isopropyl-N-methyl-N-(2-morpholinoethyl)pyrazolo[1,5-a][1,3,5]triazine-2-carboxamide] | 500 to 2500 | > 2500 | > 25 |
| CC(C)c1cnn2c(NCc3ccccc3-n3cccn3)nc(NC3CCCNC3)nc12 (stereo not drawn) [(VIII-01), N4-(2-(1H-pyrazol-1-yl)benzyl)-8-isopropyl-N2-(piperidin-3-yl)pyrazolo[1,5-a][1,3,5]triazine-2,4-diamine] | 50 to 500 | > 2500 | < 5 |
| CC(C)c1cnn2c(NCc3ccccc3-c3cccs3)nc([S+]([O-])C3CCNCC3)nc12 (stereo not drawn) [(X-2), 8-isopropyl-2-(piperidin-4-ylsulfinyl)-N-(2-(thiophen-2-yl)benzyl)pyrazolo[1,5-a][1,3,5]triazin-4-amine] | 50 to 500 | 50 to 500 | < 5 |
| CC(C)c1cnn2c(NCc3ccccc3-c3nnn(C)n3)nc(O[C@@H]3CCCNC3)nc12 [(VII-37), (R)-8-isopropyl-N-(2-(2-methyl-2H-tetrazol-5-yl)benzyl)-2-(piperidin-3-yloxy)pyrazolo[1,5-a][1,3,5]triazin-4-amine] | < 50 | > 2500 | < 5 |
| CC(C)c1cnn2c(NCc3cccc4c3ccc[n+]4[O-])nc(O[C@@H]3CCCNC3)nc12 [(VII-30), (R)-5-(((8-isopropyl-2-(piperidin-3-yloxy)pyrazolo[1,5-a][1,3,5]triazin-4-yl)amino)methyl)quinoline 1-oxide] | 500 to 2500 | < 50 | < 5 |
| CC(C)c1cnn2c(NCc3cccc4[nH]ncc34)nc(O[C@@H]3CCCNC3)nc12 [(VII-36), (R)-N-((1H-indazol-4-yl)methyl)-8-isopropyl-2-(piperidin-3-yloxy)pyrazolo[1,5-a][1,3,5]triazin-4-amine] | < 50 | < 50 | < 5 |
| CC(C)c1cnn2c(NCc3ccccc3-n3cccn3)nc(N3CC(N4CCCC4=O)C3)nc12 [(VIII-047), 1-(1-(4-((2-(1H-pyrazol-1-yl)benzyl)amino)-8-isopropylpyrazolo[1,5-a][1,3,5]triazin-2-yl)azetidin-3-yl)pyrrolidin-2-one] | > 2500 | > 2500 | > 25 |
| CC(C)c1cnn2c(NCc3ccccc3Cl)nc(OC3CCN(C)CC3)nc12 [(VII-68), N-(2-chlorobenzyl)-8-isopropyl-2-((1-methylpiperidin-4-yl)oxy)pyrazolo[1,5-a][1,3,5]triazin-4-amine] | 50 to 500 | 50 to 500 | < 5 |
| CC(C)c1cnn2c(NCc3ccccc3-n3cccn3)nc(N3CCCC4(CCNCC4)C3)nc12 [(VIII-21), N-(2-(1H-pyrazol-1-yl)benzyl)-8-isopropyl-2-(2,9-diazaspiro[5.5]undecan-2-yl)pyrazolo[1,5-a][1,3,5]triazin-4-amine] | 500 to 2500 | > 2500 | 5 to 10 |
| CC(C)c1cnn2c(NCc3cccc4c3OCCCO4)nc(O[C@@H]3CCCNC3)nc12 [(VII-116), (R)-N-((3,4-dihydro-2H-benzo[b][1,4]dioxepin-6-yl)methyl)-8-isopropyl-2-(piperidin-3-yloxy)pyrazolo[1,5-a][1,3,5]triazin-4-amine] | 50 to 500 | 500 to 2500 | 10 to 25 |
| CC(C)c1cnn2c(NCc3ccccc3-n3cccn3)nc(CN(C)CCN3CCCC3)nc12 [(XXX-3), N-(2-(1H-pyrazol-1-yl)benzyl)-8-isopropyl-2-((methyl(2-(pyrrolidin-1-yl)ethyl)amino)methyl)pyrazolo[1,5-a][1,3,5]triazin-4-amine] | > 2500 | > 2500 | > 25 |
| CC(C)c1cnn2c(NCc3ccccc3OC3CCC3)nc(O[C@@H]3CCCNC3)nc12 [(VII-097), (R)-N-(2-cyclobutoxybenzyl)-8-isopropyl-2-(piperidin-3-yloxy)pyrazolo[1,5-a][1,3,5]triazin-4-amine] | > 2500 | > 2500 | > 25 |
| CC(C)c1cnn2c(NCc3ccccc3-n3ccnc3)nc(O[C@@H]3CCCNC3)nc12 [(VII-26), (R)-N-(2-(1H-imidazol-1-yl)benzyl)-8-isopropyl-2-(piperidin-3-yloxy)pyrazolo[1,5-a][1,3,5]triazin-4-amine] | 50 to 500 | 50 to 500 | < 5 |
| CC(C)c1cnn2c(NCc3cccc4ccccc34)nc(OC3CCN(C)CC3)nc12 [(VII-61), 8-isopropyl-2-((1-methylpiperidin-4-yl)oxy)-N-(naphthalen-1-ylmethyl)pyrazolo[1,5-a][1,3,5]triazin-4-amine] | 500 to 2500 | 50 to 500 | 5 to 10 |
| CC(C)c1cnn2c(NCc3ccccc3N3CCCC3=O)nc(N3CCC4(CCCN4)CC3)nc12 [(VIII-38), 1-(2-(((8-isopropyl-2-(1,8-diazaspiro[4.5]decan-8-yl)pyrazolo[1,5-a][1,3,5]triazin-4-yl)amino)methyl)phenyl)pyrrolidin-2-one] | > 2500 | > 2500 | < 5 |
| CC(C)c1cnn2c(NCc3ccccc3-n3cccn3)nc(N3CC4CCNC4C3)nc12 (stereo not drawn) [(VIII-050), N-(2-(1H-pyrazol-1-yl)benzyl)-2-(hexahydropyrrolo[3,4-b]pyrrol-5(1H)-yl)-8-isopropylpyrazolo[1,5-a][1,3,5]triazin-4-amine] | > 2500 | > 2500 | 10 to 25 |
| COc1ccccc1CNc1nc(OC2CCN(C)CC2)nc2c(C(C)C)cnn12 [(VII-71), 8-isopropyl-N-(2-methoxybenzyl)-2-((1-methylpiperidin-4-yl)oxy)pyrazolo[1,5-a][1,3,5]triazin-4-amine] | 50 to 500 | 50 to 500 | < 5 |
| CC(C)Oc1ccccc1CNc1nc(N[C@@H]2CCCNC2)nc2c(C(C)C)cnn12 [(VIII-32), (R)-N4-(2-isopropoxybenzyl)-8-isopropyl-N2-(piperidin-3-yl)pyrazolo[1,5-a][1,3,5]triazine-2,4-diamine] | 500 to 2500 | > 2500 | 5 to 10 |
| CCCNC(=O)Nc1ccccc1CNc1nc(O[C@@H]2CCCNC2)nc2c(C(C)C)cnn12 [(VII-110), (R)-1-(2-(((8-isopropyl-2-(piperidin-3-yloxy)pyrazolo[1,5-a][1,3,5]triazin-4-yl)amino)methyl)phenyl)-3-propylurea] | > 2500 | > 2500 | < 5 |
| CC(C)c1cnn2c(NCc3c(F)cccc3-n3cccn3)nc(O[C@@H]3CCCNC3)nc12 [(VII-44), (R)-N-(2-fluoro-6-(1H-pyrazol-1-yl)benzyl)-8-isopropyl-2-(piperidin-3-yloxy)pyrazolo[1,5-a][1,3,5]triazin-4-amine] | 50 to 500 | > 2500 | < 5 |
| CC(C)c1cnn2c(NCc3ccccc3-c3ccccc3)nc(O[C@@H]3CCNC3)nc12 [(VII-08), (R)-N-([1,1′-biphenyl]-2-ylmethyl)-8-isopropyl-2-(pyrrolidin-3-yloxy)pyrazolo[1,5-a][1,3,5]triazin-4-amine] | 500 to 2500 | 500 to 2500 | 5 to 10 |
